Laboratory results taken from patent US5840684A, “Glycopeptide antibiotic derivatives” (Eli Lilly and Company, priority 1995, dated 1998).
≈ marks a conversion by molar mass, not a printed value.

Tests used:
[1] = system: Staphylococcus aureus S13E; type: cell-based
Protocol: (§1) The MIC's were determined using a standard broth micro-dilution assay.

[2] = system: Staphylococcus aureus SA1199B; type: cell-based
Protocol: as §1

[3] = system: Entercoccus faecium 180-1; assay: broth micro-dilution MIC; type: cell-based
Protocol: as §1

[4] = system: Entercoccus faecium 276; assay: broth micro-dilution MIC; type: cell-based
Protocol: as §1

[5] = system: Staphylococcus aureus 446; assay: broth micro-dilution MIC; type: cell-based
Protocol: as §1

[6] = system: Staphylococcus aureus 447; assay: broth micro-dilution MIC; type: cell-based
Protocol: as §1

[7] = system: Staphylococcus aureus 489; assay: broth micro-dilution MIC; type: cell-based
Protocol: as §1

[8] = system: Staphylococcus aureus 491; assay: broth micro-dilution MIC; type: cell-based
Protocol: as §1

[9] = system: Staphylococcus aureus SA1199A; assay: broth micro-dilution MIC; type: cell-based
Protocol: as §1

[10] = system: Staphylococcus aureus SA1199; assay: broth micro-dilution MIC; type: cell-based
Protocol: as §1

[11] = system: Staphylococcus aureus X400; assay: broth micro-dilution MIC; type: cell-based
Protocol: as §1

[12] = system: Streptococcus pyogenes C203; assay: broth micro-dilution MIC; type: cell-based
Protocol: as §1

[13] = system: Entercoccus faecium 180; assay: broth micro-dilution MIC; type: cell-based; conditions: Entercoccus faecium 180
Protocol: (§2) The formula I compounds have in vitro and in vivo activity against Gram-positive pathogenic bacteria. The MIC's were determined using a standard broth micro-dilution assay.

[14] = system: Entercoccus faecium 2041; assay: broth micro-dilution MIC; type: cell-based; conditions: Entercoccus faecium 2041
Protocol: as §2

[15] = system: Enterococcus gallinarum 245; assay: broth micro-dilution MIC; type: cell-based; conditions: Enterococcus gallinarum 245
Protocol: as §2

[16] = system: Staphylococcus epidermidis 270; assay: broth micro-dilution MIC; type: cell-based
Protocol: as §2

[17] = system: Staphylococcus haemolyticus 105; assay: broth micro-dilution MIC; type: cell-based
Protocol: as §2

[18] = system: Staphylococcus haemolyticus 415; assay: broth micro-dilution MIC; type: cell-based
Protocol: as §2

[19] = system: Streptococcus pneumoniae P1; assay: broth micro-dilution MIC; type: cell-based
Protocol: as §2

[20] = system: vancomycin-susceptible enterococci; assay: broth micro-dilution, mean geometric MIC; type: cell-based, Enterococcus faecium and Enterococcus faecalis; conditions: enterococci, 24-hour incubation
[21] = system: Staphylococcus aureus X778; assay: broth micro-dilution MIC; type: cell-based
Protocol: as §1

[22] = system: vancomycin-resistant enterococci; assay: broth micro-dilution, mean geometric MIC; type: cell-based, Enterococcus faecium and Enterococcus faecalis; conditions: enterococci, 24-hour incubation

SMILES	MIC [1] [µg/mL]	MIC [2] [µg/mL]	MIC [3] [µg/mL]	MIC [4] [µg/mL]	MIC [5] [µg/mL]	MIC [6] [µg/mL]	MIC [7] [µg/mL]	MIC [8] [µg/mL]	MIC [9] [µg/mL]	MIC [10] [µg/mL]	MIC [11] [µg/mL]	MIC [13] [µg/mL]	MIC [14] [µg/mL]	MIC [15] [µg/mL]	MIC [16] [µg/mL]	MIC [17] [µg/mL]	MIC [18] [µg/mL]	MIC [19] [µg/mL]	mean geometric MIC, Vancomycin Sensitive Strains [20] [µg/mL]	mean geometric MIC, Vancomycin Resistant Strains [22] [µg/mL]	also measured
CNC(CC(C)C)C(=O)NC1C(=O)NC(CC(N)=O)C(=O)NC2C(=O)NC3C(=O)NC(C(=O)NC(C(=O)O)c4cc(O)cc(O)c4-c4cc3ccc4O)C(OC3CC(C)(N)C(O)C(C)O3)c3ccc(c(Cl)c3)Oc3cc2cc(c3OC2OC(CO)C(O)C(O)C2OC2CC(C)(NCc3ccc4ccc5cccc6ccc3c4c56)C(O)C(C)O2)Oc2ccc(cc2Cl)C1O (stereo not shown) [Compound 16]	1 (≈ 0.553 µM)	1 (≈ 0.553 µM)	0.125 (≈ 0.0692 µM)	2 (≈ 1.11 µM)	4 (≈ 2.21 µM)	4 (≈ 2.21 µM)	0.5 (≈ 0.277 µM)	1 (≈ 0.553 µM)	≤ 0.06	2 (≈ 1.11 µM)	0.5 (≈ 0.277 µM)	1 (≈ 0.553 µM)	0.5 (≈ 0.277 µM)	1 (≈ 0.553 µM)	2 (≈ 1.11 µM)	8 (≈ 4.43 µM)	4 (≈ 2.21 µM)	≤ 0.06	0.67	–	MIC [12]: ≤ 0.06 µg/mL
CNC(CC(C)C)C(=O)NC1C(=O)NC(CC(N)=O)C(=O)NC2C(=O)NC3C(=O)NC(C(=O)NC(C(=O)O)c4cc(O)cc(O)c4-c4cc3ccc4O)C(OC3CC(C)(N)C(O)C(C)O3)c3ccc(c(Cl)c3)Oc3cc2cc(c3OC2OC(CO)C(O)C(O)C2OC2CC(C)(NCc3ccc(Oc4ccccc4Cl)c([N+](=O)[O-])c3)C(O)C(C)O2)Oc2ccc(cc2Cl)C1O (stereo not shown) [Compound 88]	1 (≈ 0.539 µM)	1 (≈ 0.539 µM)	≤ 0.06	≤ 0.06	–	–	0.5 (≈ 0.27 µM)	0.5 (≈ 0.27 µM)	≤ 0.06	1 (≈ 0.539 µM)	≤ 0.06	0.125 (≈ 0.0674 µM)	≤ 0.06	≤ 0.06	1 (≈ 0.539 µM)	1 (≈ 0.539 µM)	2 (≈ 1.08 µM)	≤ 0.06	0.055	1.7	MIC [21]: 0.5 µg/mL (≈ 0.27 µM); MIC [12]: ≤ 0.06 µg/mL
CN[C@H](CC(C)C)C(=O)N[C@H]1C(=O)N[C@@H](CC(N)=O)C(=O)N[C@H]2C(=O)N[C@H]3C(=O)N[C@H](C(=O)N[C@H](C(=O)O)c4cc(O)cc(O)c4-c4cc3ccc4O)[C@H](O[C@H]3C[C@](C)(N)[C@@H](O)[C@H](C)O3)c3ccc(c(Cl)c3)Oc3cc2cc(c3O[C@@H]2O[C@H](CO)[C@@H](O)[C@H](O)[C@H]2O[C@H]2C[C@](C)(NCc3ccc(-c4cccc(F)c4)cc3)[C@@H](O)[C@H](C)O2)Oc2ccc(cc2Cl)[C@H]1O [Compound 92]	0.125 (≈ 0.0704 µM)	0.5 (≈ 0.281 µM)	≤ 0.06	0.125 (≈ 0.0704 µM)	2 (≈ 1.13 µM)	0.5 (≈ 0.281 µM)	≤ 0.06	1 (≈ 0.563 µM)	≤ 0.06	1 (≈ 0.563 µM)	0.5 (≈ 0.281 µM)	0.125 (≈ 0.0704 µM)	0.125 (≈ 0.0704 µM)	2 (≈ 1.13 µM)	1 (≈ 0.563 µM)	2 (≈ 1.13 µM)	2 (≈ 1.13 µM)	≤ 0.06	0.082	1.7	MIC [12]: ≤ 0.06 µg/mL
CNC(CC(C)C)C(=O)NC1C(=O)NC(CC(N)=O)C(=O)NC2C(=O)NC3C(=O)NC(C(=O)NC(C(=O)O)c4cc(O)cc(O)c4-c4cc3ccc4O)C(OC3CC(C)(N)C(O)C(C)O3)c3ccc(c(Cl)c3)Oc3cc2cc(c3OC2OC(CO)C(O)C(O)C2OC2CC(C)(NCc3ccc(-c4ccccc4)cc3F)C(O)C(C)O2)Oc2ccc(cc2Cl)C1O (stereo not shown) [Compound 206]	1 (≈ 0.563 µM)	1 (≈ 0.563 µM)	≤ 0.06	≤ 0.06	0.5 (≈ 0.281 µM)	0.5 (≈ 0.281 µM)	1 (≈ 0.563 µM)	≤ 0.06	≤ 0.06	0.5 (≈ 0.281 µM)	0.5 (≈ 0.281 µM)	≤ 0.06	0.25 (≈ 0.141 µM)	1 (≈ 0.563 µM)	0.25 (≈ 0.141 µM)	0.5 (≈ 0.281 µM)	1 (≈ 0.563 µM)	≤ 0.06	0.095	1.7	MIC [21]: 0.5 µg/mL (≈ 0.281 µM)
CCCCCCCCC#CCCCCCCNC1(C)CC(OC2C(Oc3c4cc5cc3Oc3ccc(cc3Cl)C(OC3CC(C)(N)C(O)C(C)O3)C3NC(=O)C(NC(=O)C5NC(=O)C(CC(N)=O)NC(=O)C(NC(=O)C(CC(C)C)NC)C(O)c5ccc(c(Cl)c5)O4)c4ccc(O)c(c4)-c4c(O)cc(O)cc4C(C(=O)O)NC3=O)OC(CO)C(O)C2O)OC(C)C1O (stereo not shown) [Compound 207]	8 (≈ 4.41 µM)	16 (≈ 8.83 µM)	≤ 0.06	0.25 (≈ 0.138 µM)	8 (≈ 4.41 µM)	8 (≈ 4.41 µM)	4 (≈ 2.21 µM)	1 (≈ 0.552 µM)	4 (≈ 2.21 µM)	8 (≈ 4.41 µM)	8 (≈ 4.41 µM)	1 (≈ 0.552 µM)	0.125 (≈ 0.069 µM)	1 (≈ 0.552 µM)	8 (≈ 4.41 µM)	8 (≈ 4.41 µM)	1 (≈ 0.552 µM)	≤ 0.06	0.50	1.2	MIC [21]: 8 µg/mL (≈ 4.41 µM)
CNC(CC(C)C)C(=O)NC1C(=O)NC(CC(N)=O)C(=O)NC2C(=O)NC3C(=O)NC(C(=O)NC(C(=O)O)c4cc(O)cc(O)c4-c4cc3ccc4O)C(OC3CC(C)(N)C(O)C(C)O3)c3ccc(c(Cl)c3)Oc3cc2cc(c3OC2OC(CO)C(O)C(O)C2OC2CC(C)(NCc3ccc(-c4ccc([N+](=O)[O-])cc4)c([N+](=O)[O-])c3)C(O)C(C)O2)Oc2ccc(cc2Cl)C1O (stereo not shown) [Compound 212]	≤ 0.06	≤ 0.06	≤ 0.06	≤ 0.06	≤ 0.06	–	≤ 0.06	≤ 0.06	≤ 0.06	≤ 0.06	≤ 0.06	≤ 0.06	≤ 0.06	1 (≈ 0.541 µM)	≤ 0.06	1 (≈ 0.541 µM)	1 (≈ 0.541 µM)	≤ 0.06	0.036	0.50	MIC [21]: ≤ 0.06 µg/mL
CNC(CC(C)C)C(=O)NC1C(=O)NC(CC(N)=O)C(=O)NC2C(=O)NC3C(=O)NC(C(=O)NC(C(=O)O)c4cc(O)cc(O)c4-c4cc3ccc4O)C(OC3CC(C)(N)C(O)C(C)O3)c3ccc(c(Cl)c3)Oc3cc2cc(c3OC2OC(CO)C(O)C(O)C2OC2CC(C)(NCc3ccc(-c4ccc(C)cc4)c(C)c3)C(O)C(C)O2)Oc2ccc(cc2Cl)C1O (stereo not shown) [Compound 225]	1 (≈ 0.56 µM)	2 (≈ 1.12 µM)	≤ 0.06	–	1 (≈ 0.56 µM)	1 (≈ 0.56 µM)	2 (≈ 1.12 µM)	1 (≈ 0.56 µM)	–	1 (≈ 0.56 µM)	1 (≈ 0.56 µM)	≤ 0.06	0.125 (≈ 0.07 µM)	4 (≈ 2.24 µM)	1 (≈ 0.56 µM)	0.5 (≈ 0.28 µM)	4 (≈ 2.24 µM)	≤ 0.06	0.072	0.63	MIC [21]: 0.5 µg/mL (≈ 0.28 µM); MIC [12]: ≤ 0.06 µg/mL
CNC(CC(C)C)C(=O)NC1C(=O)NC(CC(N)=O)C(=O)NC2C(=O)NC3C(=O)NC(C(=O)NC(C(=O)O)c4cc(O)cc(O)c4-c4cc3ccc4O)C(OC3CC(C)(N)C(O)C(C)O3)c3ccc(c(Cl)c3)Oc3cc2cc(c3OC2OC(CO)C(O)C(O)C2OC2CC(C)(NCCCCCCCCCCCCc3ccccc3)C(O)C(C)O2)Oc2ccc(cc2Cl)C1O (stereo not shown) [Compound 234]	8 (≈ 4.36 µM)	8 (≈ 4.36 µM)	1 (≈ 0.544 µM)	4 (≈ 2.18 µM)	4 (≈ 2.18 µM)	8 (≈ 4.36 µM)	4 (≈ 2.18 µM)	8 (≈ 4.36 µM)	2 (≈ 1.09 µM)	8 (≈ 4.36 µM)	8 (≈ 4.36 µM)	1 (≈ 0.544 µM)	0.5 (≈ 0.272 µM)	16 (≈ 8.71 µM)	4 (≈ 2.18 µM)	8 (≈ 4.36 µM)	16 (≈ 8.71 µM)	–	2	2	MIC [21]: 4 µg/mL (≈ 2.18 µM)
